Experimental data as given in PMC5218480 (PLoS ONE, 2017).

System: MV-4-11 cells
Assay: Gene expression microarray analysis (Affymetrix PrimeView) and GSEA
Type: cell-based, human
Design: RFU PODN (11730768_x_at) / Fold change /veh PODN (11730768_x_at) / RFU LINC00158 (11744669_a_at) / Fold change /veh LINC00158 (11744669_a_at) / RFU DUSP10 (11751237_a_at) / Fold change /veh DUSP10 (11751237_a_at) / RFU ID3 (11757404_x_at) / Fold change /veh ID3 (11757404_x_at) / RFU PLEKHG5 (11737974_s_at) / Fold change /veh PLEKHG5 (11737974_s_at) / RFU LRRC4B (11730491_at) / Fold change /veh LRRC4B (11730491_at) / RFU GIMAP4 (11747438_a_at) / Fold change /veh GIMAP4 (11747438_a_at) / RFU KRT8 (11758183_x_at) / Fold change /veh KRT8 (11758183_x_at) / RFU CNN1 (11734310_a_at) / Fold change /veh CNN1 (11734310_a_at) / RFU VPS37D (11726825_at) / Fold change /veh VPS37D (11726825_at) / RFU C10orf10 (11716522_x_at) / Fold change /veh C10orf10 (11716522_x_at) / RFU KIR2DL2 /// KIR2DL4 /// KIR2DL5A /// KIR2DL5B /// KIR2DS1 /// KIR2DS2 /// KIR2DS3 /// KIR2DS4 /// KIR3DL3 /// KIR3DL3 /// KIR3DS1 (11738374_at) / Fold change /veh KIR2DL2 /// KIR2DL4 /// KIR2DL5A /// KIR2DL5B /// KIR2DS1 /// KIR2DS2 /// KIR2DS3 /// KIR2DS4 /// KIR3DL3 /// KIR3DL3 /// KIR3DS1 (11738374_at) / RFU C1QL1 (11718748_at) / Fold change /veh C1QL1 (11718748_at) / RFU TMPRSS4 (11747572_a_at) / Fold change /veh TMPRSS4 (11747572_a_at) / RFU HAMP (11756126_x_at) / Fold change /veh HAMP (11756126_x_at) / RFU RNFT2 (11725882_a_at) / Fold change /veh RNFT2 (11725882_a_at) / RFU NR4A2 (11747474_a_at) / Fold change /veh NR4A2 (11747474_a_at) / RFU ABCC12 (11746883_a_at) / Fold change /veh ABCC12 (11746883_a_at) / RFU TMEM136 (11760407_x_at) / Fold change /veh TMEM136 (11760407_x_at) / RFU CLDN22 /// WWC2 (11732394_at) / Fold change /veh CLDN22 /// WWC2 (11732394_at) / RFU HLA-DPB1 (11760878_x_at) / Fold change /veh HLA-DPB1 (11760878_x_at) / RFU SPINT1 (11716480_a_at) / Fold change /veh SPINT1 (11716480_a_at) / RFU GAP43 (11754022_s_at) / Fold change /veh GAP43 (11754022_s_at) / RFU A4GNT (11735810_at) / Fold change /veh A4GNT (11735810_at) / RFU PRB3 (11715151_x_at) / Fold change /veh PRB3 (11715151_x_at) / RFU TUBB4B (11761932_at) / Fold change /veh TUBB4B (11761932_at) / RFU CAPN14 (11732068_a_at) / Fold change /veh CAPN14 (11732068_a_at) / RFU TMCC2 (11721928_a_at) / Fold change /veh TMCC2 (11721928_a_at) / RFU IRGQ (11745062_a_at) / Fold change /veh IRGQ (11745062_a_at) / RFU FAM174B (11720279_a_at) / Fold change /veh FAM174B (11720279_a_at) / RFU TMPRSS4 (11748680_a_at) / Fold change /veh TMPRSS4 (11748680_a_at) / RFU FAM212B (11763350_a_at) / Fold change /veh FAM212B (11763350_a_at) / RFU PLEKHG5 (11743358_a_at) / Fold change /veh PLEKHG5 (11743358_a_at) / RFU ZSCAN30 (11745921_a_at) / Fold change /veh ZSCAN30 (11745921_a_at) / RFU CMKLR1 (11741424_a_at) / Fold change /veh CMKLR1 (11741424_a_at) / RFU LOC101060620 /// MAPK8IP1 (11723275_at) / Fold change /veh LOC101060620 /// MAPK8IP1 (11723275_at) / RFU SPTSSB (11747773_x_at) / Fold change /veh SPTSSB (11747773_x_at) / RFU PRSS12 (11739890_at) / Fold change /veh PRSS12 (11739890_at) / RFU BIN1 (11741810_x_at) / Fold change /veh BIN1 (11741810_x_at) / RFU WNT11 (11732464_a_at) / Fold change /veh WNT11 (11732464_a_at) / RFU C10orf10 (11716521_a_at) / Fold change /veh C10orf10 (11716521_a_at) / RFU C5orf56 (11738089_at) / Fold change /veh C5orf56 (11738089_at) / RFU CYB561 (11721691_x_at) / Fold change /veh CYB561 (11721691_x_at) / RFU ANKRD19P (11752326_a_at) / Fold change /veh ANKRD19P (11752326_a_at) / RFU OR2T12 /// OR2T33 /// OR2T8 (11738714_s_at) / Fold change /veh OR2T12 /// OR2T33 /// OR2T8 (11738714_s_at) / RFU VCAN (11748164_a_at) / Fold change /veh VCAN (11748164_a_at) / RFU JSRP1 (11732532_at) / Fold change /veh JSRP1 (11732532_at) / RFU KRTAP10-11 (11738290_x_at) / Fold change /veh KRTAP10-11 (11738290_x_at) / RFU MYO3A (11730013_a_at) / Fold change /veh MYO3A (11730013_a_at) / RFU EBF3 (11725865_a_at) / Fold change /veh EBF3 (11725865_a_at) / RFU CAMK2N1 (11719241_x_at) / Fold change /veh CAMK2N1 (11719241_x_at) / RFU C5orf56 (11738088_a_at) / Fold change /veh C5orf56 (11738088_a_at) / RFU OLFML3 (11715873_a_at) / Fold change /veh OLFML3 (11715873_a_at) / RFU LOC100653217 /// NTM (11731650_a_at) / Fold change /veh LOC100653217 /// NTM (11731650_a_at) / RFU MAPK11 (11762145_a_at) / Fold change /veh MAPK11 (11762145_a_at) / RFU FIZ1 (11724087_x_at) / Fold change /veh FIZ1 (11724087_x_at) / RFU OASL (11726364_x_at) / Fold change /veh OASL (11726364_x_at) / RFU SOX15 (11748057_x_at) / Fold change /veh SOX15 (11748057_x_at) / RFU CD79A (11719716_a_at) / Fold change /veh CD79A (11719716_a_at) / RFU HIST1H1D (11736915_at) / Fold change /veh HIST1H1D (11736915_at) / RFU CASKIN2 (11723855_a_at) / Fold change /veh CASKIN2 (11723855_a_at) / RFU LOC730098 (11760151_x_at) / Fold change /veh LOC730098 (11760151_x_at) / RFU OR4N2 (11742367_at) / Fold change /veh OR4N2 (11742367_at) / RFU PRRT2 (11749266_a_at) / Fold change /veh PRRT2 (11749266_a_at) / RFU SNX32 (11753110_a_at) / Fold change /veh SNX32 (11753110_a_at) / RFU CDHR5 (11726645_a_at) / Fold change /veh CDHR5 (11726645_a_at) / RFU RCAN1 (11760418_a_at) / Fold change /veh RCAN1 (11760418_a_at) / RFU FAM167A (11723789_a_at) / Fold change /veh FAM167A (11723789_a_at) / RFU FAM26E (11764081_at) / Fold change /veh FAM26E (11764081_at) / RFU ISYNA1 (11749810_s_at) / Fold change /veh ISYNA1 (11749810_s_at) / RFU ACY1 (11761880_at) / Fold change /veh ACY1 (11761880_at) / RFU 11764098_at / Fold change /veh 11764098_at / RFU SAMD14 (11745864_x_at) / Fold change /veh SAMD14 (11745864_x_at) / RFU NPB (11741838_a_at) / Fold change /veh NPB (11741838_a_at) / RFU TMPRSS6 (11731388_a_at) / Fold change /veh TMPRSS6 (11731388_a_at) / RFU KRTAP10-2 (11738614_at) / Fold change /veh KRTAP10-2 (11738614_at) / RFU ARHGAP8 /// PRR5-ARHGAP8 (11727945_x_at) / Fold change /veh ARHGAP8 /// PRR5-ARHGAP8 (11727945_x_at) / RFU KRTAP5-7 /// NADSYN1 (11734609_at) / Fold change /veh KRTAP5-7 /// NADSYN1 (11734609_at) / RFU RASL12 (11751679_a_at) / Fold change /veh RASL12 (11751679_a_at) / RFU CDKN2B (11736163_a_at) / Fold change /veh CDKN2B (11736163_a_at) / RFU PRF1 (11729649_at) / Fold change /veh PRF1 (11729649_at) / RFU, ZNF638 /// ZNF638-IT1 / Fold change vs veh, ZNF638 /// ZNF638-IT1 / RFU, PANK3 / Fold change vs veh, PANK3 / RFU, SH3YL1 / Fold change vs veh, SH3YL1 / RFU, ZEB2 / Fold change vs veh, ZEB2 / RFU, NRIP1 / Fold change vs veh, NRIP1 / RFU, PTTG1IP / Fold change vs veh, PTTG1IP / RFU, CAPN2 / Fold change vs veh, CAPN2 / RFU, MED14 / Fold change vs veh, MED14 / RFU, SNORA58 / Fold change vs veh, SNORA58 / RFU, C1orf63 / Fold change vs veh, C1orf63 / RFU, LRRFIP1 / Fold change vs veh, LRRFIP1 / RFU, NDUFAF7 / Fold change vs veh, NDUFAF7 / RFU, SLC12A2 / Fold change vs veh, SLC12A2 / RFU, IBTK / Fold change vs veh, IBTK / RFU, ESF1 / Fold change vs veh, ESF1 / Fold change vs veh, TMEM50B / RFU, TAOK1 / Fold change vs veh, TAOK1 / RFU, ACBD3 / Fold change vs veh, ACBD3 / RFU, TMA16 / Fold change vs veh, TMA16 / RFU, RWDD3 / Fold change vs veh, RWDD3 / RFU, BCAT1 / Fold change vs veh, BCAT1 / RFU, EDEM3 / Fold change vs veh, EDEM3 / RFU, TMEM33 / Fold change vs veh, TMEM33 / RFU, WDR75 / Fold change vs veh, WDR75 / RFU, AHCTF1 / Fold change vs veh, AHCTF1 / RFU, TFRC / Fold change vs veh, TFRC / RFU, ZDHHC17 / Fold change vs veh, ZDHHC17 / RFU, NOM1 / Fold change vs veh, NOM1 / RFU, ARL8B / Fold change vs veh, ARL8B / RFU, ZBTB11 / Fold change vs veh, ZBTB11 / RFU, TAMM41 / Fold change vs veh, TAMM41 / RFU, KIAA1704 /// LOC100996395 / Fold change vs veh, KIAA1704 /// LOC100996395 / RFU, ING1 / Fold change vs veh, ING1 / RFU, TRMT61B / Fold change vs veh, TRMT61B / RFU, FUBP3 / Fold change vs veh, FUBP3 / RFU, TP53 / Fold change vs veh, TP53 / RFU, TNKS2 / Fold change vs veh, TNKS2 / RFU, ZFP14 / Fold change vs veh, ZFP14 / RFU, ACTR2 / Fold change vs veh, ACTR2 / RFU, PPP3R1 / Fold change vs veh, PPP3R1 / RFU, PIK3R1 / Fold change vs veh, PIK3R1 / RFU, HNRNPA1 / Fold change vs veh, HNRNPA1 / RFU, RNF170 / Fold change vs veh, RNF170 / RFU, ZNF28 / Fold change vs veh, ZNF28 / RFU, RNGTT / Fold change vs veh, RNGTT / RFU, OGT / Fold change vs veh, OGT / RFU, BRD1 / Fold change vs veh, BRD1 / RFU, MARS / Fold change vs veh, MARS / RFU, ZNF655 / Fold change vs veh, ZNF655 / RFU, FAHD1 / Fold change vs veh, FAHD1 / RFU, BDP1 / Fold change vs veh, BDP1 / RFU, LRRCC1 / Fold change vs veh, LRRCC1 / RFU, ARID1A / Fold change vs veh, ARID1A / RFU, ZNF146 / Fold change vs veh, ZNF146 / RFU, ZNF330 / Fold change vs veh, ZNF330 / RFU, GPN3 / Fold change vs veh, GPN3 / RFU, C9orf123 / Fold change vs veh, C9orf123 / RFU, N4BP2L2 / Fold change vs veh, N4BP2L2 / RFU, ARFIP1 / Fold change vs veh, ARFIP1 / RFU, FAM179B / Fold change vs veh, FAM179B / RFU, BCL10 / Fold change vs veh, BCL10 / RFU, UHRF1BP1L / Fold change vs veh, UHRF1BP1L / RFU, BET1 / Fold change vs veh, BET1 / RFU, CNOT2 / Fold change vs veh, CNOT2 / RFU, ZNF268 / Fold change vs veh, ZNF268 / Fold change vs veh, ZNF507 / RFU, DGCR2 / Fold change vs veh, DGCR2 / RFU, WDSUB1 / Fold change vs veh, WDSUB1 / Fold change vs veh, HSP90B1 /// MIR3652 / RFU, ADSS / Fold change vs veh, ADSS / RFU, GK / Fold change vs veh, GK / RFU, ZNF148 / Fold change vs veh, ZNF148 / RFU, TAF9 / Fold change vs veh, TAF9 / RFU, SLC1A5 / Fold change vs veh, SLC1A5 / RFU, SLMO2 / Fold change vs veh, SLMO2 / RFU, ABCC4 / Fold change vs veh, ABCC4 / RFU, LOC101060439 /// RAP1B / Fold change vs veh, LOC101060439 /// RAP1B / RFU, RFX7 / Fold change vs veh, RFX7 / RFU, GTPBP10 / Fold change vs veh, GTPBP10 / RFU, CNEP1R1 / Fold change vs veh, CNEP1R1 / RFU, BIVM-ERCC5 /// ERCC5 / Fold change vs veh, BIVM-ERCC5 /// ERCC5 / RFU, ILF3 / Fold change vs veh, ILF3 / RFU 11762660_at / Fold change /veh 11762660_at / RFU VCAN (11757783_s_at) / Fold change /veh VCAN (11757783_s_at) / RFU DDX43 (11728927_at) / Fold change /veh DDX43 (11728927_at) / RFU KRT8 (11758188_x_at) / Fold change /veh KRT8 (11758188_x_at) / RFU NKD1 (11759106_at) / Fold change /veh NKD1 (11759106_at) / RFU SRD5A1 (11742802_a_at) / Fold change /veh SRD5A1 (11742802_a_at) / RFU TPSAB1 /// TPSB2 (11721975_s_at) / Fold change /veh TPSAB1 /// TPSB2 (11721975_s_at) / RFU GSTM3 (11746129_a_at) / Fold change /veh GSTM3 (11746129_a_at) / RFU IL23R (11737362_x_at) / Fold change /veh IL23R (11737362_x_at) / RFU TMEM51 (11727254_a_at) / Fold change /veh TMEM51 (11727254_a_at) / RFU PIWIL2 (11732686_x_at) / Fold change /veh PIWIL2 (11732686_x_at) / RFU ORM1 (11744905_x_at) / Fold change /veh ORM1 (11744905_x_at) / RFU CCDC152 (11743942_at) / Fold change /veh CCDC152 (11743942_at) / RFU ECM1 (11717891_a_at) / Fold change /veh ECM1 (11717891_a_at) / RFU IL23R (11748794_a_at) / Fold change /veh IL23R (11748794_a_at) / RFU TNFAIP8L3 (11732012_x_at) / Fold change /veh TNFAIP8L3 (11732012_x_at) / RFU MBOAT4 (11741988_at) / Fold change /veh MBOAT4 (11741988_at) / RFU 11764193_at / Fold change /veh 11764193_at / RFU TMEM53 (11763286_at) / Fold change /veh TMEM53 (11763286_at) / RFU MAGEB2 (11727129_at) / Fold change /veh MAGEB2 (11727129_at) / RFU TMEM200A (11744735_a_at) / Fold change /veh TMEM200A (11744735_a_at) / RFU CCDC152 (11751479_a_at) / Fold change /veh CCDC152 (11751479_a_at) / RFU FAM211A (11726209_a_at) / Fold change /veh FAM211A (11726209_a_at) / RFU RGS16 (11746705_a_at) / Fold change /veh RGS16 (11746705_a_at) / RFU VCAN (11755009_s_at) / Fold change /veh VCAN (11755009_s_at) / RFU RHOB (11743442_s_at) / Fold change /veh RHOB (11743442_s_at) / RFU RGS16 (11720943_a_at) / Fold change /veh RGS16 (11720943_a_at) / RFU RGS16 (11720944_at) / Fold change /veh RGS16 (11720944_at) / RFU, VPS4B / Fold change vs veh, VPS4B / RFU, CREB1 / Fold change vs veh, CREB1 / RFU, DNAJC13 / Fold change vs veh, DNAJC13 / RFU, GNAQ / Fold change vs veh, GNAQ / RFU, CDK5R1 / Fold change vs veh, CDK5R1 / RFU, ZRANB3 / Fold change vs veh, ZRANB3 / RFU, CUL4A / Fold change vs veh, CUL4A / RFU, CCNY / Fold change vs veh, CCNY / RFU, UFL1 / Fold change vs veh, UFL1 / RFU, COG3 / Fold change vs veh, COG3 / RFU, DIAPH2 / Fold change vs veh, DIAPH2 / RFU, SKA2 / Fold change vs veh, SKA2 / RFU, AFF3 / Fold change vs veh, AFF3 / RFU, LMF1 / Fold change vs veh, LMF1 / RFU, IPO11 / Fold change vs veh, IPO11 / RFU, DFFB / Fold change vs veh, DFFB / RFU, FOXP1 / Fold change vs veh, FOXP1 / RFU, CARD8 / Fold change vs veh, CARD8 / RFU, STRN3 / Fold change vs veh, STRN3 / RFU, ADK / Fold change vs veh, ADK / RFU, RASSF2 / Fold change vs veh, RASSF2 / RFU, WIPF1 / Fold change vs veh, WIPF1 / RFU, LARP1B / Fold change vs veh, LARP1B / RFU, RASA1 / Fold change vs veh, RASA1 / RFU, RB1 / Fold change vs veh, RB1 / RFU, PPFIA1 / Fold change vs veh, PPFIA1 / RFU, MAT2A / Fold change vs veh, MAT2A / RFU, CCT5 / Fold change vs veh, CCT5 / RFU, WDR92 / Fold change vs veh, WDR92 / RFU, CUX1 / Fold change vs veh, CUX1 / RFU, TTC7A / Fold change vs veh, TTC7A / RFU, TMEM135 / Fold change vs veh, TMEM135 / RFU, DEPTOR / Fold change vs veh, DEPTOR / RFU, CPM / Fold change vs veh, CPM / RFU, DNAJB6 / Fold change vs veh, DNAJB6 / RFU, CACNA2D3 / Fold change vs veh, CACNA2D3 / RFU, DTX4 / Fold change vs veh, DTX4 / RFU, TFCP2 / Fold change vs veh, TFCP2 / RFU, GMCL1 /// GMCL1P1 / Fold change vs veh, GMCL1 /// GMCL1P1 / RFU, AEBP2 / Fold change vs veh, AEBP2 / RFU, SNHG1 /// SNORD22 /// SNORD25 /// SNORD26 /// SNORD27 /// SNORD28 /// SNORD29 /// SNORD31 / Fold change vs veh, SNHG1 /// SNORD22 /// SNORD25 /// SNORD26 /// SNORD27 /// SNORD28 /// SNORD29 /// SNORD31 / Fold change (Aza/veh), C12orf56 (ProbeSet 11735607_a_at) / Fold change (ACY-1035/veh), C12orf56 (ProbeSet 11735607_a_at) / Fold change (Aza/veh), FGFR1OP (ProbeSet 11751329_s_at) / Fold change (ACY-1035/veh), FGFR1OP (ProbeSet 11751329_s_at) / Fold change (Aza/veh), VPS36 (ProbeSet 11739960_a_at) / Fold change (ACY-1035/veh), VPS36 (ProbeSet 11739960_a_at) / RFU SYPL1 (11715823_x_at) / Fold change /veh SYPL1 (11715823_x_at) / RFU IGFBP7 (11715501_s_at) / Fold change /veh IGFBP7 (11715501_s_at) / RFU REEP3 (11722064_at) / Fold change /veh REEP3 (11722064_at) / RFU IGLL1 (11728026_x_at) / Fold change /veh IGLL1 (11728026_x_at): dose or concentration left out as unconfirmed
Conditions: MV-4-11 cells, 48 hours

Structure (SMILES): Nc1ncn([C@@H]2O[C@H](CO)[C@@H](O)[C@H]2O)c(=O)n1 [azacitidine]
- RFU VCAN (11748164_a_at): 5.82 RFU
